The test system of experiment [1] is BMDC primary cells. The experiment can be described thus: Luc mRNA LNP transfection on BMDC primary cells (Embodiment 21, Table 9). Type of experiment: cell-based, C57BL/6 mice. To be noted: 16 h, ONE-Glo Luciferase. The procedure:
Preparation method: the same as that in Embodiment 17.
Animal preparation: 6-week-old female C57BL/6 mice with the body weight about 20 g were selected. A feeding environment was an SPF stage feeding room. Animal tests were strictly performed according to the guide of the national health institute and the animal ethics requirements.
(§1) Cell acquisition: C57BL/6 mice were killed through cervical dislocation, and were soaked for 5 min in 75% ethyl alcohol. Dissection was performed to obtain thigh and calf tibiae of the mice. Attached muscles were removed to expose sclerotin. Then, bone marrow in tibiae was blown out by using a 1 mL injector sucked with PBS. After the bone marrow was blown away, impurities were filtered away by a 50 μm filter screen. A red blood cell lysis buffer (3-4 mL) was added into an obtained filtrate. Then, after placement for 5 min, 800 g centrifugation was performed for 5 min to remove a supernatant. The obtained cells were placed into a 1640 culture medium (containing 10% fetal calf serum, 20 ng/mL GMCSF and 10 ng/mL IL4) to be resuspended, and were inoculated into a 6-well plate at an inoculation density of 100000 cells/ml culture medium. The materials were placed into a 37° C. cell incubator containing 5% CO2. Half liquid change was performed once every 2 days. Suspended cells and loose wall attached cells were collected on the seventh day, and were inoculated to a 96-well all-white ELISA plate at the inoculation density of 20000 cells per well, and the volume of a culture medium was 100 μL.
Cell transfection: lipid nanoparticles coated with luciferase mRNA were added into a 96-well white ELISA plate laid with primary cells. The adding volume of the mRNA lipid nanoparticles in each well was controlled to be 10 μL. Then, the materials were put into a 37° C. incubator containing 5% CO2 for 16 h.
Transfection efficiency detection: 20 μL of a substrate ONE-Glo™ Luciferase was added into each well of a 96-well all-white ELISA plate, and after 1 min, detection was performed by a multifunctional or multimode microplate reader.

Experiment [2] deals with BMDC primary cells. Description: Luc mRNA LNP transfection on BMDC primary cells (Embodiment 13, Table 3). The conditions noted are these: 16 h, ONE-Glo Luciferase. Type of experiment: cell-based, C57BL/6 mice. The procedure:
Preparation method: the same as that described in Embodiment 7.
Animal preparation: 6-week-old female C57BL/6 mice with the body weight about 20 g were selected. The feeding environment was an SPF stage feeding room. Animal tests were strictly performed according to the guide of the national health institute and the animal ethics requirements.
as §1, with “remove the” for “remove a”, “10 ng/ml” for “10 ng/mL”, “were” for “were inoculated to a 96-well all-white ELISA plate at the inoculation density of 20000 cells”
Cell transfection: lipid nanoparticles coated with luciferase mRNA were added into a 96-well all-white ELISA plate laid with primary cells. The adding volume of the mRNA lipid nanoparticles in each well was controlled to be 10 μL. Then, the materials were put into a 37° C. incubator containing 5% CO2 for 16 h.
Transfection efficiency detection: 20 μL of a substrate ONE-Glo™ Luciferase was added into each well of a 96-well all-white ELISA plate. After 1 min, detection was performed by a multifunctional or multimode microplate reader.

Regarding `CCCCCCCCCC(CCCCCCCCC)C(=O)OCC(CCCCCC)OC(=O)CCCCN(C)C` (stereo not shown) [E3C116A11], the Luciferase luminescence intensity with BMDC primary cells [1] amounted to 4.4E+04.
As to `CCCCCCCCCCC(CCCC)C(=O)OCC(CCCCCCCC)OC(=O)CCCN(C)C` (stereo not shown) [E5C104A9], the Luciferase luminescence intensity with BMDC primary cells [1] was 5.2E+04.
Still for that read-out and setting: in the case of `CCCCCCCCCCC(CCCC)C(=O)OCC(CCCCCCCC)OC(=O)CCCCN(C)C` (stereo not shown) [E5C104A11] it was 4.0E+04.
`CCCCCCCCCC(CCCCC)C(=O)OCC(CCCCCCCC)OC(=O)CCCN(C)C` (stereo not shown) [E5C109A9] came in with a Luciferase luminescence intensity in the experiment with BMDC primary cells [1] of 3.9E+03.
For `CCCCCCCCC(COC(=O)C(CCCCCCC)CCCCCCC)OC(=O)CCCN(C)C` (stereo not shown) [E5C114A9], the Luciferase luminescence intensity in the experiment on BMDC primary cells [1] is given as 8.6E+03.
Same read-out and setting: in the case of `CCCCCCCCC(COC(=O)C(CCCCCCC)CCCCCCC)OC(=O)CCCCN(C)C` (stereo not shown) [E5C114A11] it was 4.6E+04.
As to `CCCCCCCCC(COC(=O)C(CCCCCCCC)CCCCCCCC)OC(=O)CCCN(C)C` (stereo not shown) [E5C115A9], in the experiment with BMDC primary cells [1], the Luciferase luminescence intensity is listed as 2.7E+04.
The same measure, in the same setting: in the case of `CCCCCCCCC(COC(=O)C(CCCCCCCC)CCCCCCCC)OC(=O)CCCCN(C)C` (stereo not shown) [E5C115A11] it was 1.1E+05.
In the experiment with BMDC primary cells [1], `CCCCCCCCCC(CCCCCCCCC)C(=O)OCC(CCCCCCCC)OC(=O)CCCCN(C)C` (stereo not shown) [E5C116A11] returned a Luciferase luminescence intensity of 6.2E+04.
Turning to `CCCCCCCCCCC(CCCC)CC(=O)OCC(CCCCCCCC)OC(=O)CCCN(C)C` (stereo not shown) [E5C119A9], in the experiment with BMDC primary cells [1], the Luciferase luminescence intensity is reported as 4.1E+04.
Same read-out and setting: in the case of `CCCCCCCCC(COC(=O)CC(CCCCCCC)CCCCCCC)OC(=O)CCCN(C)C` (stereo not shown) [E5C128A9] it was 3.9E+04.
Same read-out and setting: in the case of `CCCCCCCCC(COC(=O)CC(CCCCCCC)CCCCCCC)OC(=O)CCCCN(C)C` (stereo not shown) [E5C128A11] it was 4.3E+04.
`CCCCCCCCCCCCCCC(COC(=O)C(CC)CCCCCCCCC)OC(=O)CCCCN(C)C` (stereo not shown) [E11C60A11]: the Luciferase luminescence intensity in the experiment with BMDC primary cells [2] is recorded as 3.3E+ 04.
In turn, `CCCCCCCCCCCCCCC(COC(=O)C(CCC)CCCCCCCC)OC(=O)CCCCN(C)C` (stereo not shown) [E11C62A11] had a Luciferase luminescence intensity in the experiment with BMDC primary cells [2] of 4.1E+ 04.
On the same count and under the same terms, as for `CCCCCCCCCCCCCCCC(COC(=O)CCCCCCCCCC)OC(=O)CCCCN(C)C` (stereo not shown) [E12C6A11], the figure is 1.2E+ 04; as for `CCCCCCCCCCCCCCCC(COC(=O)C(CCCCCC)CCCCCC)OC(=O)C1CCN(C)CC1` (stereo not shown) [E12C64A23], 1.8E+ 04.
Regarding `CCCCCCCCCCCCCCCC(COC(=O)C(C)CCCCCCCCCCCCCC)OC(=O)CCCCN(C)C` (stereo not shown) [E12C74A11], in the experiment on BMDC primary cells [2], the Luciferase luminescence intensity worked out at 1.1E+ 04.
The molecule `C=CCCCCC(COC(=O)C(CCCCCCC)CCCCCCCCC)OC(=O)C(C)CCN(C)C` (stereo not shown) [E15C79A10] registered a Luciferase luminescence intensity with BMDC primary cells [2] of 8.9E+ 04.
Same read-out and setting: as for `C=CCCCCC(COC(=O)C(CCCCCCC)CCCCCCCCC)OC(=O)CCCCN(C)C` (stereo not shown) [E15C79A11], the figure is 3.0E+ 04; as for `C=CCCCCC(COC(=O)C(CCCCCCC)CCCCCCCCC)OC(=O)CCCCCN(C)C` (stereo not shown) [E15C79A12], 4.4E+ 04; as for `CCCCCCCCCCCCCC(=O)OCC(CCCCCC(CC)CC)OC(=O)C(C)CCN(C)C` (stereo not shown) [E20C9A10], 2.7E+ 04.
The molecule `CCCCCCCCCCCCCC(=O)OCC(CCCCCC(CC)CC)OC(=O)CCCCN(C)C` (stereo not shown) [E20C9A11] showed a Luciferase luminescence intensity in the experiment with BMDC primary cells [2] of 4.0E+ 04.
Still for that read-out and setting: as for `CCCCCCCCCCCCCCC(=O)OCC(CCCCCC(CC)CC)OC(=O)CCCN(C)C` (stereo not shown) [E20C10A9], the figure is 4.8E+ 04.
`CCCCCCCCCCCCCCC(=O)OCC(CCCCCC(CC)CC)OC(=O)C(C)CCN(C)C` (stereo not shown) [E20C10A10] displayed a Luciferase luminescence intensity in the experiment on BMDC primary cells [2] of 1.2E+ 04.
`CCCCCCCCCCCCCCC(=O)OCC(CCCCCC(CC)CC)OC(=O)CCCCN(C)C` (stereo not shown) [E20C10A11] yielded a Luciferase luminescence intensity in the experiment with BMDC primary cells [2] of 1.9E+ 04.
Molecule `CCCCCCCCCCCCCCC(=O)OCC(CCCCCC(CC)CC)OC(=O)CCCCCN(C)C` (stereo not shown) [E20C10A12] showed a Luciferase luminescence intensity in the experiment on BMDC primary cells [2] of 3.6E+ 04.
Still for that read-out and setting: in the case of `CCCCCCCCCCCCCCCC(=O)OCC(CCCCCC(CC)CC)OC(=O)CCCN(C)C` (stereo not shown) [E20C11A9, 2-((4-(Dimethylamino)Butyryl)Oxy)-8-Ethyldecyl Palmitate] it was 9.9E+ 04; in that of `CCCCCCCCCCCCCCCC(=O)OCC(CCCCCC(CC)CC)OC(=O)C(C)CCN(C)C` (stereo not shown) [E20C11A10], 4.5E+ 04.
The same measure, in the same setting: in the case of `CCCCCCCCCCCCCCCC(=O)OCC(CCCCCC(CC)CC)OC(=O)C1CCN(C)CC1` (stereo not shown) [E20C11A23] it was 1.6E+ 04; in that of `CCCCCCCCCCCCCCCCC(=O)OCC(CCCCCC(CC)CC)OC(=O)CCCN(C)C` (stereo not shown) [E20C12A9], 4.9E+ 04.
In the experiment with BMDC primary cells [2], `CCCCCCCCCCCCCCCCC(=O)OCC(CCCCCC(CC)CC)OC(=O)C(C)CCN(C)C` (stereo not shown) [E20C12A10] gave a Luciferase luminescence intensity of 9.6E+ 04.
Still for that read-out and setting: as for `CCCCCCCCCCCCCCCCC(=O)OCC(CCCCCC(CC)CC)OC(=O)C1CCN(C)CC1` (stereo not shown) [E20C12A23], the figure is 1.7E+ 04; as for `CCCCCCC(CCCCCC)C(=O)OCC(CCCCCC(CC)CC)OC(=O)CCCN(C)C` (stereo not shown) [E20C64A9], 3.0E+ 04; as for `CCCCCCCCCCC(C)(C)C(=O)OCC(CCCCCC(CC)CC)OC(=O)CCCN(C)C` (stereo not shown) [E20C66A9], 5.9E+ 04.
In the experiment on BMDC primary cells [2], `CCC(CC)CCCCCC(COC(=O)CCCCCCCCCCCC(C)C)OC(=O)CCCN(C)C` (stereo not shown) [E20C67A9] showed a Luciferase luminescence intensity of 9.5E+ 03.
Same read-out and setting: as for `CCCCCCCCC(CCCCCC)C(=O)OCC(CCCCCC(CC)CC)OC(=O)CCCN(C)C` (stereo not shown) [E20C71A9], the figure is 6.6E+ 04.
`CCCCCCCCCCCCCC(C)C(=O)OCC(CCCCCC(CC)CC)OC(=O)CCCN(C)C` (stereo not shown) [E20C72A9] displayed a Luciferase luminescence intensity in the experiment on BMDC primary cells [2] of 4.7E+ 03.
The molecule `CCCCCCCCCCCCCCCC(=O)OCC(OC(=O)CCCN(C)C)C(CCCC)CCCCC` (stereo not shown) [E21C11A9] gave a Luciferase luminescence intensity with BMDC primary cells [2] of 8.7E+ 03.
With `CCCCCCCCCCCCCCCC(=O)OCC(OC(=O)C(C)CCN(C)C)C(CCCC)CCCCC` (stereo not shown) [E21C11A10], in the experiment with BMDC primary cells [2], the Luciferase luminescence intensity was determined as 1.7E+ 04.
Same read-out and setting: in the case of `CCCCCCCCCCCCCCCC(=O)OCC(OC(=O)CCCCN(C)C)C(CCCC)CCCCC` (stereo not shown) [E21C11A11] it was 4.7E+ 04.
On the same count and under the same terms, as for `CCCCCCCCCCCCCCCCC(=O)OCC(OC(=O)CCCN(C)C)C(CCCC)CCCCC` (stereo not shown) [E21C12A9], the figure is 5.4E+ 04; as for `CCCCCCCCCCCCCCCCC(=O)OCC(OC(=O)C(C)CCN(C)C)C(CCCC)CCCCC` (stereo not shown) [E21C12A10], 8.9E+ 04; as for `CCCCCCCCCCCCCCCCC(=O)OCC(OC(=O)CCCCN(C)C)C(CCCC)CCCCC` (stereo not shown) [E21C12A11], 9.5E+ 04.
In the case of `CCCCCCCCCCCCCCCCCC(=O)OCC(OC(=O)CCCN(C)C)C(CCCC)CCCCC` (stereo not shown) [E21C13A9], in the experiment on BMDC primary cells [2], the Luciferase luminescence intensity stood at 6.7E+ 04.
Still for that read-out and setting: as for `CCCCCCCCCCCCCCCCCC(=O)OCC(OC(=O)CCCCN(C)C)C(CCCC)CCCCC` (stereo not shown) [E21C13A11], the figure is 6.4E+ 04; as for `CCCCCCCCCCCCCCCCCCC(=O)OCC(OC(=O)CCCN(C)C)C(CCCC)CCCCC` (stereo not shown) [E21C14A9], 4.5E+ 04.
Same read-out and setting: in the case of `CCCCCC(CCCC)C(COC(=O)CCCCCCCCCCCC(C)C)OC(=O)CCCN(C)C` (stereo not shown) [E21C67A9] it was 3.2E+ 04.
In the experiment with BMDC primary cells [2], `CCCCCCCCC(CCCCCC)C(=O)OCC(OC(=O)C1CCN(C)CC1)C(CCCC)CCCCC` (stereo not shown) [E21C71A23] had a Luciferase luminescence intensity of 1.9E+ 04.
Still for that read-out and setting: as for `CCCCCCCCCCCCCC(=O)OC(CC(F)(F)C(F)(F)C(F)(F)C(F)(F)C(F)(F)C(F)(F)F)OC(=O)CCCN(C)C` (stereo not shown) [E24C9A9, 1-((4-(Dimethylamino)Butyryl)Oxy)-3,3,4,4,5,5,6,6,7,7,8,8,8-Tridecafluorooctyl Tetradecanoate], the figure is 1.1E+ 04.

The record behind these values is patent US12679801B2, “Amino lipid and preparation method and application thereof” (Shenzhen MagicRNA Biotechnology Co., Ltd., priority 2022, dated 2026).
